Key:
Test in all cases: Weeding effect in post-emergence stage
Format in all cases: in vivo
[1] = system: Abutilon theophrasti; conditions: for Weeding effect in post-emergence stage, Abutilon theophrasti (level): fresh weight control rate level; for Weeding effect in post-emergence stage, Abutilon theophrasti: level of fresh weight growth control rate
How it was run: (§1)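 Read-out is growth control rate, counted 3 weeks post-spray and averaged over three repeats. Greenhouse plants at the 2-3 leaf stage received spray-tower application at 500, 250, 125, 60, 30, 15 or 7.5 g/ha, with methyl oleate EC (1.5 liter/ha) and Tween 80 added.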

[2] = system: Alopecurus japonicus; conditions: for Weeding effect in post-emergence stage, Alopecurus japonicus (level): fresh weight control rate level; for Weeding effect in post-emergence stage, Alopecurus japonicus: level of fresh weight growth control rate
How it was run: as §1

[3] = system: Digitaria sanguinalis; conditions: for Weeding effect in post-emergence stage, Digitaria sanguinalis (level): fresh weight control rate level; for Weeding effect in post-emergence stage, Digitaria sanguinalis: level of fresh weight growth control rate
How it was run: as §1

[4] = system: Eleusine indica; conditions: for Weeding effect in post-emergence stage, Eleusine indica (level): fresh weight control rate level; for Weeding effect in post-emergence stage, Eleusine indica: level of fresh weight growth control rate
How it was run: as §1

[5] = system: Setaria viridis; conditions: for Weeding effect in post-emergence stage, Setaria viridis (level): fresh weight control rate level; for Weeding effect in post-emergence stage, Setaria viridis: level of fresh weight growth control rate
How it was run: as §1

[6] = system: Echinochloa crusgalli; conditions: for Weeding effect in post-emergence stage, Echinochloa crusgalli (level): fresh weight control rate level; for Weeding effect in post-emergence stage, Echinochloa crusgalli: level of fresh weight growth control rate
How it was run: as §1

Row | SMILES | Weeding effect in post-emergence stage, Abutilon theophrasti (level) ([1]; Dose 15 g/ha) | Weeding effect in post-emergence stage, Alopecurus japonicus (level) ([2]; Dose 15 g/ha) | Weeding effect in post-emergence stage, Digitaria sanguinalis (level) ([3]; Dose 15 g/ha) | Weeding effect in post-emergence stage, Eleusine indica (level) ([4]; Dose 15 g/ha) | Weeding effect in post-emergence stage, Setaria viridis (level) ([5]; Dose 15 g/ha) | Weeding effect in post-emergence stage, Echinochloa crusgalli (level) ([6]; Dose 15 g/ha) | Weeding effect in post-emergence stage, Abutilon theophrasti ([1]; Dose 15 g/ha) | Weeding effect in post-emergence stage, Alopecurus japonicus ([2]; Dose 15 g/ha) | Weeding effect in post-emergence stage, Digitaria sanguinalis ([3]; Dose 15 g/ha) | Weeding effect in post-emergence stage, Eleusine indica ([4]; Dose 15 g/ha) | Weeding effect in post-emergence stage, Setaria viridis ([5]; Dose 15 g/ha) | Weeding effect in post-emergence stage, Echinochloa crusgalli ([6]; Dose 15 g/ha) | further results
1 | C=CCC(O/N=C/c1cc(-n2c(=O)cc(C(F)(F)F)n(C)c2=O)c(F)cc1Cl)C(=O)OC (stereo not drawn) [Compound 487] | 5 (Level 5: growth control rate is above 85%) | 5 (Level 5: growth control rate is above 85%) | 5 (Level 5: growth control rate is above 85%) | 5 (Level 5: growth control rate is above 85%) | 5 (Level 5: growth control rate is above 85%) | 5 (Level 5: growth control rate is above 85%) |  |  |  |  |  |  | 
2 | CCn1c(C(F)(F)F)cc(=O)n(-c2cc(/C=N/OC(C)C(=O)OC)c(Cl)cc2F)c1=O (stereo not drawn) [Compound 426] |  |  |  |  |  |  |  |  |  |  |  |  | Weeding effect in post-emergence stage, Abutilon theophrasti (level) ([1]; Dose 250 g/ha): 5 (Level 5: growth control rate is above 85%); Weeding effect in post-emergence stage, Alopecurus japonicus (level) ([2]; Dose 250 g/ha): 5 (Level 5: growth control rate is above 85%); Weeding effect in post-emergence stage, Digitaria sanguinalis (level) ([3]; Dose 250 g/ha): 5 (Level 5: growth control rate is above 85%); Weeding effect in post-emergence stage, Eleusine indica (level) ([4]; Dose 250 g/ha): 5 (Level 5: growth control rate is above 85%); Weeding effect in post-emergence stage, Setaria viridis (level) ([5]; Dose 250 g/ha): 5 (Level 5: growth control rate is above 85%); Weeding effect in post-emergence stage, Echinochloa crusgalli (level) ([6]; Dose 250 g/ha): 5 (Level 5: growth control rate is above 85%)
3 | CC(O/N=C/c1cc(-n2c(=O)cc(C(F)(F)F)n(C)c2=O)c(F)cc1Cl)C(=O)OCCC(F)(F)F (racemic) [Compound 221] |  |  |  |  |  |  | 5 (Level 5: growth control rate is above 85%) | 4 (Level 4: growth control rate is greater than or equal to 60% and less than 85%) | 5 (Level 5: growth control rate is above 85%) | 5 (Level 5: growth control rate is above 85%) | 5 (Level 5: growth control rate is above 85%) | 5 (Level 5: growth control rate is above 85%) | 
4 | COC(=O)CCOC(=O)C(C)O/N=C/c1cc(-n2c(=O)cc(C(F)(F)F)n(C)c2=O)c(F)cc1Cl (stereo not drawn) [Compound 240] |  |  |  |  |  |  |  |  |  |  |  |  | Weeding effect in post-emergence stage, Abutilon theophrasti ([1]; Dose 30 g/ha): 5 (Level 5: growth control rate is above 85%); Weeding effect in post-emergence stage, Alopecurus japonicus ([2]; Dose 30 g/ha): 5 (Level 5: growth control rate is above 85%); Weeding effect in post-emergence stage, Digitaria sanguinalis ([3]; Dose 30 g/ha): 5 (Level 5: growth control rate is above 85%); Weeding effect in post-emergence stage, Eleusine indica ([4]; Dose 30 g/ha): 5 (Level 5: growth control rate is above 85%); Weeding effect in post-emergence stage, Setaria viridis ([5]; Dose 30 g/ha): 5 (Level 5: growth control rate is above 85%); Weeding effect in post-emergence stage, Echinochloa crusgalli ([6]; Dose 30 g/ha): 5 (Level 5: growth control rate is above 85%)
5 | Cc1cc(C)n(C(=O)[C@@H](C)O/N=C/c2cc(-n3c(=O)cc(C(F)(F)F)n(C)c3=O)c(F)cc2Cl)n1 [424(R)] |  |  |  |  |  |  |  |  |  |  |  |  | Weeding effect in post-emergence stage, Abutilon theophrasti (level) ([1]; Dose 30 g/ha): 5 (Level 5: growth control rate is above 85%); Weeding effect in post-emergence stage, Alopecurus japonicus (level) ([2]; Dose 30 g/ha): 5 (Level 5: growth control rate is above 85%); Weeding effect in post-emergence stage, Digitaria sanguinalis (level) ([3]; Dose 30 g/ha): 5 (Level 5: growth control rate is above 85%); Weeding effect in post-emergence stage, Eleusine indica (level) ([4]; Dose 30 g/ha): 5 (Level 5: growth control rate is above 85%); Weeding effect in post-emergence stage, Setaria viridis (level) ([5]; Dose 30 g/ha): 5 (Level 5: growth control rate is above 85%); Weeding effect in post-emergence stage, Echinochloa crusgalli (level) ([6]; Dose 30 g/ha): 5 (Level 5: growth control rate is above 85%)
6 | CO/N=C/c1cc(-n2c(=O)cc(C(F)(F)F)n(N)c2=O)c(F)cc1Cl [Control compound C, reference compound] | 2 (Level 2: growth control rate is greater than or equal to 20% and less than 40%) | 1 (Level 1: growth control rate is greater than or equal to 5% and less than 20%) | 2 (Level 2: growth control rate is greater than or equal to 20% and less than 40%) | 1 (Level 1: growth control rate is greater than or equal to 5% and less than 20%) | 2 (Level 2: growth control rate is greater than or equal to 20% and less than 40%) | 2 (Level 2: growth control rate is greater than or equal to 20% and less than 40%) |  |  |  |  |  |  | 
7 | CCOC(=O)CO/N=C/c1cc(-n2c(=O)cc(C(F)(F)F)[nH]c2=O)ccc1Cl [Control compound B, reference compound] | 3 (Level 3: growth control rate is greater than or equal to 40% and less than 60%) | 1 (Level 1: growth control rate is greater than or equal to 5% and less than 20%) | 2 (Level 2: growth control rate is greater than or equal to 20% and less than 40%) | 1 (Level 1: growth control rate is greater than or equal to 5% and less than 20%) | 2 (Level 2: growth control rate is greater than or equal to 20% and less than 40%) | 2 (Level 2: growth control rate is greater than or equal to 20% and less than 40%) |  |  |  |  |  |  | 
8 | CC(C)=NOC(=O)C(C)O/N=C/c1cc(-n2c(=O)n(C)c(=S)n(C)c2=O)c(F)cc1Cl (stereo not drawn) [Compound 20] |  |  |  |  |  |  | 5 (Level 5: growth control rate is above 85%) | 5 (Level 5: growth control rate is above 85%) | 5 (Level 5: growth control rate is above 85%) | 5 (Level 5: growth control rate is above 85%) | 5 (Level 5: growth control rate is above 85%) | 5 (Level 5: growth control rate is above 85%) | 
9 | COCCOC(=O)C(C)O/N=C/c1cc(-n2c(=O)cc(C(F)(F)F)n(C)c2=O)c(F)cc1Cl (stereo not drawn) [Compound 230] |  |  |  |  |  |  | 5 (Level 5: growth control rate is above 85%) | 5 (Level 5: growth control rate is above 85%) | 5 (Level 5: growth control rate is above 85%) | 5 (Level 5: growth control rate is above 85%) | 5 (Level 5: growth control rate is above 85%) | 5 (Level 5: growth control rate is above 85%) | 
10 | COC(=O)C(C)O/N=C/c1cc(-n2c(=O)cc(C(F)(F)F)n(C)c2=O)c(F)cc1C#N (stereo not drawn) [Compound 344] |  |  |  |  |  |  | 5 (Level 5: growth control rate is above 85%) | 5 (Level 5: growth control rate is above 85%) | 5 (Level 5: growth control rate is above 85%) | 5 (Level 5: growth control rate is above 85%) | 5 (Level 5: growth control rate is above 85%) | 5 (Level 5: growth control rate is above 85%) | 

Reference: patent US20230111310A1, “CARBOXYLIC ACID DERIVATIVE-SUBSTITUTED IMINO ARYL COMPOUND, PREPARATION METHOD THEREFOR, HERBICIDAL COMPOSITION AND USE THEREOF” (Qingdao Kingagroot Chemical Compound Co., Ltd., priority 2020, published 2023)
